Experimental data reported in patent publication US12600741B2, “3-phenoxybenzoic acid-glucuronic acid conjugate, and preparation method and use thereof” (Shanxi Medical University, priority 2023, dated 2026).

Experiment: In vitro liver microsome experiment (glucuronidation with UDPGA, UPLC-MS/MS detection)
Assay type: in vitro ADME
Settings: pooled human liver microsomes, alamethicin, 37° C., incubation 0 min and 6 h
Experimental: In Vitro Liver Microsome Experiment
Experimental group: 136 μL of 50 mM Tris buffer was added to a 1.5 mL centrifuge tube, added with 20 μL of 100 mM aqueous D-glucaro-1,4-lactone solution, 10 μL of 10 mM aqueous magnesium chloride (MgCl2) solution, 10 μL of 40 mg/mL pooled human liver microsomes, and 2 μL of 50 mg/mL alamethicin, respectively, and preincubated on ice for 15 min; 2 μL of 2 mg/mL substrate (3-PBA) was added, and preincubated with 100 mM uridine diphosphate glucuronic acid (UDPGA) solution for 5 min at 37° C.; 20 μL of preincubated UDPGA solution was added to the reaction system to start the reaction, and incubation proceeded. At 0 min and 6 h, 200 μL of glacial acetonitrile was added to the reaction system to terminate the reaction, respectively. The reaction system was vortexed for 1 min and centrifuged at 13,000 r/min for 10 min at 4° C. All supernatants were put in a test tube, nitrogen-blown at 37° C., and reconstituted with 200 μL of methanol. The samples were analyzed and detected by UPLC-MS/MS. The difference between the blank group and the experimental group was only that 3-PBA was not added, and the difference between the control group and the experimental group was only that UDPGA was not added. […]

Compound: O=C(O)c1cccc(Oc2ccccc2)c1 [3-PBA, 3-phenoxybenzoic acid]
- phase II metabolism (formation of glucuronic acid conjugate) detected by UPLC-MS/MS: underwent phase II metabolic reaction

Compound: CC1(C)Cc2cccc(O)c2O1 [carbofuran phenol]
- phase II metabolism (formation of glucuronic acid conjugate) detected by UPLC-MS/MS: carbofuran phenol-glucuronic acid conjugate was detected
